Laboratory results from patent publication US8802597B2, “Herbicidal pyrimidines” (E I du Pont de Nemours and Company, priority 2003, dated 2014).

Experiments:
Assay in all cases: Test C pre/postemergence
Assay type in all cases: in vivo
[1] = system: eastern black nightshade (Solanum ptycanthum); details: Preemergence, scale 0 to 100
In short: (§1)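 Applications: preemergence onto seeded soil and postemergence onto 1- to 4-leaf seedlings, compound carried in non-phytotoxic solvent plus surfactant. Kept in greenhouse 12 to 14 days. Scored visually relative to untreated controls, 0 (no effect) to 100 (complete control).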

[2] = system: johnsongrass (Sorghum halepense); details: for Johnsongrass plant response rating: scale 0 to 100 (0 no effect, 100 complete control)
In short: as §1

[3] = system: common (oilseed) sunflower (Helianthus annuus); details: Preemergence
In short: as §1

kochia (Kochia scoparia) = details: for Kochia plant response rating: scale 0 to 100 (0 no effect, 100 complete control)
In short: as §1

[4] = system: crabgrass (Digitaria sanguinalis); details: for Crabgrass plant response rating: scale 0 to 100 (0 no effect, 100 complete control)
In short: as §1

[5] = system: cocklebur (Xanthium strumarium); details: for Cocklebur plant response rating: scale 0 to 100 (0 no effect, 100 complete control); for Plant response rating, Cocklebur: scale 0 to 100
In short: as §1

[6] = system: morningglory (Ipomoea coccinea); details: for Morningglory plant response rating: scale 0 to 100 (0 no effect, 100 complete control)
In short: as §1

soybean (Glycine max) = details: for Soybean plant response rating: scale 0 to 100 (0 no effect, 100 complete control)
In short: as §1

[7] = system: Surinam grass (Brachiaria decumbens); details: for Surinam Grass plant response rating: scale 0 to 100 (0 no effect, 100 complete control); for Plant response rating, Surinam Grass: scale 0 to 100
In short: as §1

[8] = system: giant foxtail (Setaria faberii); details: for Foxtail, Giant plant response rating: scale 0 to 100 (0 no effect, 100 complete control)
In short: as §1

corn (Zea mays) = details: for Corn plant response rating: scale 0 to 100 (0 no effect, 100 complete control)
In short: as §1

[9] = system: lambsquarters (Chenopodium album); details: for Lambsquarters plant response rating: scale 0 to 100 (0 no effect, 100 complete control)
In short: as §1

[10] = Postemergence, 250 g ai/ha, scale 0 to 100
[11] = Postemergence, 500 g ai/ha, scale 0 to 100
[12] = Preemergence, 62 g ai/ha, scale 0 to 100, 0 no effect, 100 complete control
[13] = Preemergence, 125 g ai/ha, scale 0 to 100
[14] = Preemergence, 250 g ai/ha, scale 0 to 100
[15] = Preemergence, 500 g ai/ha, scale 0 to 100

## COC(=O)CNc1nc(C2CC2)nc(C(=O)OC)c1Br [Compound 10]
[1]; 250 g ai/ha
  Plant response rating, Nightshade: 20
[1]; 500 g ai/ha
  Plant response rating, Nightshade: 95
[2]; Postemergence, 62 g ai/ha
  Johnsongrass plant response rating: 0
[2]; Postemergence, 125 g ai/ha
  Johnsongrass plant response rating: 0
[2]; [10]
  Plant response rating, Johnsongrass: 0
[2]; [11]
  Plant response rating, Johnsongrass: 0
[2]; [12]
  Plant response rating, Johnsongrass: 0
[2]; [13]
  Plant response rating, Johnsongrass: 0
[2]; [14]
  Plant response rating, Johnsongrass: 0
[2]; [15]
  Plant response rating, Johnsongrass: 0
[3]; 62 g ai/ha, scale 0 to 100, 0 no effect, 100 complete control
  Plant response rating, Sunflower: 0
[3]; 125 g ai/ha, scale 0 to 100
  Plant response rating, Sunflower: 0
[3]; 250 g ai/ha, scale 0 to 100
  Plant response rating, Sunflower: 0
[3]; 500 g ai/ha, scale 0 to 100
  Plant response rating, Sunflower: 0
Kochia (Kochia scoparia); Postemergence, 62 g ai/ha
  Kochia plant response rating: 80
Kochia (Kochia scoparia); Postemergence, 125 g ai/ha
  Kochia plant response rating: 90
Kochia (Kochia scoparia); [10]
  Plant response rating, Kochia: 95
Kochia (Kochia scoparia); [11]
  Plant response rating, Kochia: 100
Kochia (Kochia scoparia); [12]
  Plant response rating, Kochia: 0
Kochia (Kochia scoparia); [13]
  Plant response rating, Kochia: 0
Kochia (Kochia scoparia); [14]
  Plant response rating, Kochia: 45
Kochia (Kochia scoparia); [15]
  Plant response rating, Kochia: 65
[4]; Postemergence, 62 g ai/ha
  Crabgrass plant response rating: 0
[4]; Postemergence, 125 g ai/ha
  Crabgrass plant response rating: 0
[4]; [10]
  Plant response rating, Crabgrass: 0
[4]; [11]
  Plant response rating, Crabgrass: 0
[4]; [12]
  Plant response rating, Crabgrass: 0
[4]; [13]
  Plant response rating, Crabgrass: 0
[4]; [14]
  Plant response rating, Crabgrass: 0
[4]; [15]
  Plant response rating, Crabgrass: 0
[5]; Postemergence, 62 g ai/ha
  Cocklebur plant response rating: 0
[5]; Postemergence, 125 g ai/ha
  Cocklebur plant response rating: 15
[5]; Postemergence, 250 g ai/ha
  Plant response rating, Cocklebur: 60
[5]; Postemergence, 500 g ai/ha
  Plant response rating, Cocklebur: 75
[5]; Preemergence, 125 g ai/ha
  Plant response rating, Cocklebur: 0
[5]; Preemergence, 250 g ai/ha
  Plant response rating, Cocklebur: 0
[5]; Preemergence, 500 g ai/ha
  Plant response rating, Cocklebur: 100
[6]; Postemergence, 62 g ai/ha
  Morningglory plant response rating: 70
[6]; Postemergence, 125 g ai/ha
  Morningglory plant response rating: 85
[6]; [10]
  Plant response rating, Morningglory: 95
[6]; [11]
  Plant response rating, Morningglory: 95
[6]; [12]
  Plant response rating, Morningglory: 0
[6]; [13]
  Plant response rating, Morningglory: 0
[6]; [14]
  Plant response rating, Morningglory: 0
[6]; [15]
  Plant response rating, Morningglory: 100
Soybean (Glycine max); Postemergence, 62 g ai/ha
  Soybean plant response rating: 70
Soybean (Glycine max); Postemergence, 125 g ai/ha
  Soybean plant response rating: 80
Soybean (Glycine max); [10]
  Plant response rating, Soybean: 90
Soybean (Glycine max); [11]
  Plant response rating, Soybean: 100
Soybean (Glycine max); [12]
  Plant response rating, Soybean: 0
[7]; Postemergence, 62 g ai/ha
  Surinam Grass plant response rating: 0
[7]; Postemergence, 125 g ai/ha
  Surinam Grass plant response rating: 0
[7]; Postemergence, 250 g ai/ha
  Plant response rating, Surinam Grass: 0
[7]; Postemergence, 500 g ai/ha
  Plant response rating, Surinam Grass: 0
[7]; Preemergence, 125 g ai/ha
  Plant response rating, Surinam Grass: 0
[7]; Preemergence, 250 g ai/ha
  Plant response rating, Surinam Grass: 0
[7]; Preemergence, 500 g ai/ha
  Plant response rating, Surinam Grass: 0
[8]; Postemergence, 62 g ai/ha
  Foxtail, Giant plant response rating: 0
[8]; Postemergence, 125 g ai/ha
  Foxtail, Giant plant response rating: 0
[8]; [10]
  Plant response rating, Foxtail, Giant: 0
[8]; [11]
  Plant response rating, Foxtail, Giant: 0
[8]; [12]
  Plant response rating, Foxtail, Giant: 0
[8]; [13]
  Plant response rating, Foxtail, Giant: 0
[8]; [14]
  Plant response rating, Foxtail, Giant: 0
[8]; [15]
  Plant response rating, Foxtail, Giant: 0
Corn (Zea mays); Postemergence, 62 g ai/ha
  Corn plant response rating: 0
Corn (Zea mays); Postemergence, 125 g ai/ha
  Corn plant response rating: 0
Corn (Zea mays); [10]
  Plant response rating, Corn: 0
Corn (Zea mays); [11]
  Plant response rating, Corn: 0
Corn (Zea mays); [12]
  Plant response rating, Corn: 0
Corn (Zea mays); [13]
  Plant response rating, Corn: 0
Corn (Zea mays); [14]
  Plant response rating, Corn: 0
Corn (Zea mays); [15]
  Plant response rating, Corn: 0
[9]; Postemergence, 62 g ai/ha
  Lambsquarters plant response rating: 60
[9]; Postemergence, 125 g ai/ha
  Lambsquarters plant response rating: 80
[9]; [10]
  Plant response rating, Lambsquarters: 90
[9]; [11]
  Plant response rating, Lambsquarters: 100
[9]; [12]
  Plant response rating, Lambsquarters: 0
[9]; [13]
  Plant response rating, Lambsquarters: 50
[9]; [14]
  Plant response rating, Lambsquarters: 65
[9]; [15]
  Plant response rating, Lambsquarters: 95
